This note sets out measurements from ChEMBL document CHEMBL2029229, “Structure-activity relationship of a series of non peptidic RGD integrin antagonists targeting α5β1: part 1” (Bioorg Med Chem Lett, 2012).

The term pKa denotes the negative logarithm of the acid dissociation constant. Read a low pKa as a group that gives up its proton readily. One may read the IC50 as the concentration needed to halve the response being measured. For orientation: fraction unbound means the share of the substance not bound to proteins or other matrix. Read a low fraction unbound as extensive binding.

Series [1] is described as follows: Dissociation constant, pKa of the compound. Type of series: physicochemical.
The next series has as its target Integrin alpha-V/beta-3 (Homo sapiens, UniProt P05106+P06756). Description: Antagonist activity at integrin alphavbeta3 in human A375M cells assessed as inhibition of cell adhesion to fibrinogen in presence of Mg2+. The format is functional, cell-based.
In a further series the test system is A375M. Description: Selectivity ratio of IC50 for integrin alphavbeta3alpha5beta1-mediated human A375M cells adhesion to fibronectin in absence of MK-0429 to IC50 for integrin alpha5beta1-mediated human A375M cells adhesion to fibronectin in presence of MK-0429. Type of series: cell-based.
The target of series [2] is T1, Integrin alpha-5/beta-1 (Homo sapiens, UniProt P05556+P08648). The series is described as follows: Binding affinity to integrin alpha5beta1. The format is protein-complex assay.
Series [3] deals with T1, Integrin alpha-5/beta-1. The series is described as follows: Antagonist activity at integrin alpha5beta1 in human K562 cells assessed as inhibition of cell adhesion. The format is functional, cell-based.
The nature of series [4]: Fraction unbound in rat plasma. Type of series: ADME, cell-free.
The target in series [5] is T1, Integrin alpha-5/beta-1. The series is described as follows: Antagonist activity at integrin alpha5beta1 in human K562 cells assessed as inhibition of cell adhesion in presence of 630 uM human serum albumin. The format is functional, cell-based.
Series [6] has as its target Integrin alpha-IIb/beta-3 (Homo sapiens, UniProt P05106+P08514). Description: Inhibition of integrin alpha2b beta3. The format is protein-complex assay.
Series [7] has as its target Fibronectin receptor (Integrin alpha-5/beta-1 and alpha-V/beta-3) (Homo sapiens, UniProt P05106+P05556+P06756+P08648). Description: Antagonist activity at integrin alphavbeta3alpha5beta1 in human A375M cells assessed as inhibition of cell adhesion to fibronectin in presence of Mg2+. Type of series: functional, cell-based.
For series [8], the target named is T1, Integrin alpha-5/beta-1. Description: Antagonist activity at integrin alpha5beta1 in human A375M cells assessed as inhibition of cell adhesion to fibronectin in presence of Mg2+ and MK-0429. Type of series: functional, cell-based.

Some results are limits rather than exact numbers.

T1 sequence (P05556 21-798 limits assumed): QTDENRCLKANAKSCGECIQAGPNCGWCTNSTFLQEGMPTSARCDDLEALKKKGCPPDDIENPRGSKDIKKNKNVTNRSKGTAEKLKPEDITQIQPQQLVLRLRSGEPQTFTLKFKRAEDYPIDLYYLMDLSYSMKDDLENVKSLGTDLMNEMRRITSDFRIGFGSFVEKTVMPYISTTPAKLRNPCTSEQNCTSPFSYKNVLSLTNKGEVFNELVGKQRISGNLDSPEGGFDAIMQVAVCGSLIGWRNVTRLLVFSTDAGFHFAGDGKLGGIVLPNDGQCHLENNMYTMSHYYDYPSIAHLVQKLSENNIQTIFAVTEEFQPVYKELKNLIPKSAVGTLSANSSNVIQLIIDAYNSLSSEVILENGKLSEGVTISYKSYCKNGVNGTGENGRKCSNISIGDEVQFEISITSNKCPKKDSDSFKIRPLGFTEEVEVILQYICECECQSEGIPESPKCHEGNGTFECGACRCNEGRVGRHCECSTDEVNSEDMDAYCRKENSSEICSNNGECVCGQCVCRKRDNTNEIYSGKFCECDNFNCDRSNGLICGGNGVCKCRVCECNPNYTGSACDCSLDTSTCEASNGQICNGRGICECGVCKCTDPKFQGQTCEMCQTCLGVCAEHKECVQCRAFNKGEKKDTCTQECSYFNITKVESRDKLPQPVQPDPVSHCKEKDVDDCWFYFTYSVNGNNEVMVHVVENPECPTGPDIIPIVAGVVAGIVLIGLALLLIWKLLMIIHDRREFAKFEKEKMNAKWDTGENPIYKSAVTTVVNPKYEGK
T1 sequence (P08648 42-894 limits assumed): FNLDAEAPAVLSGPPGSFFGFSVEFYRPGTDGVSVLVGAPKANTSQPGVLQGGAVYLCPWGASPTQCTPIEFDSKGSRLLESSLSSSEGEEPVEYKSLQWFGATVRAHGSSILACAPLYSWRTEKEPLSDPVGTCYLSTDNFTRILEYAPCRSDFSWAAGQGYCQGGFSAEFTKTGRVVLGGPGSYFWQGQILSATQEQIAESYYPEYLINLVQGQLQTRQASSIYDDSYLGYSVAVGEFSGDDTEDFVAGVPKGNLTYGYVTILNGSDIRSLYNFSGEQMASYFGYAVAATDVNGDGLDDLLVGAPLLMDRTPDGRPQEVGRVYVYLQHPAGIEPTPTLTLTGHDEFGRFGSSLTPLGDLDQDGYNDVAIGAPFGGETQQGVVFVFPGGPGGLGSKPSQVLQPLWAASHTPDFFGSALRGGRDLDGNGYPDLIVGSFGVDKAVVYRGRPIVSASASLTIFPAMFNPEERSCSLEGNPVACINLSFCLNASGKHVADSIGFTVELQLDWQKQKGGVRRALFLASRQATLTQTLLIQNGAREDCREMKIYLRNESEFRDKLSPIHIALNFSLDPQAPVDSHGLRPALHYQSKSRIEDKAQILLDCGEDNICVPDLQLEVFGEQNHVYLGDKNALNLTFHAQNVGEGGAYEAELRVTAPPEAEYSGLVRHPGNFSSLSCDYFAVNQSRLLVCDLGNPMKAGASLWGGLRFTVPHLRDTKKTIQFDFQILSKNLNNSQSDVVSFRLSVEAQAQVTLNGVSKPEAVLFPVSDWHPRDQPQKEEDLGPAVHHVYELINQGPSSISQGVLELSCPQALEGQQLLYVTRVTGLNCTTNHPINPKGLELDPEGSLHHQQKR
T1 sequence (P08648 895-1049 limits assumed): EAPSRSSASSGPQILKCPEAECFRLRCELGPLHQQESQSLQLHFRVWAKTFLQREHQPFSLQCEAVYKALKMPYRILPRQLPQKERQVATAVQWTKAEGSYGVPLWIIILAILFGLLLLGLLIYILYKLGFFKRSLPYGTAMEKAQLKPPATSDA
Integrin alpha-V/beta-3, sequence (P05106 27-788 limits assumed): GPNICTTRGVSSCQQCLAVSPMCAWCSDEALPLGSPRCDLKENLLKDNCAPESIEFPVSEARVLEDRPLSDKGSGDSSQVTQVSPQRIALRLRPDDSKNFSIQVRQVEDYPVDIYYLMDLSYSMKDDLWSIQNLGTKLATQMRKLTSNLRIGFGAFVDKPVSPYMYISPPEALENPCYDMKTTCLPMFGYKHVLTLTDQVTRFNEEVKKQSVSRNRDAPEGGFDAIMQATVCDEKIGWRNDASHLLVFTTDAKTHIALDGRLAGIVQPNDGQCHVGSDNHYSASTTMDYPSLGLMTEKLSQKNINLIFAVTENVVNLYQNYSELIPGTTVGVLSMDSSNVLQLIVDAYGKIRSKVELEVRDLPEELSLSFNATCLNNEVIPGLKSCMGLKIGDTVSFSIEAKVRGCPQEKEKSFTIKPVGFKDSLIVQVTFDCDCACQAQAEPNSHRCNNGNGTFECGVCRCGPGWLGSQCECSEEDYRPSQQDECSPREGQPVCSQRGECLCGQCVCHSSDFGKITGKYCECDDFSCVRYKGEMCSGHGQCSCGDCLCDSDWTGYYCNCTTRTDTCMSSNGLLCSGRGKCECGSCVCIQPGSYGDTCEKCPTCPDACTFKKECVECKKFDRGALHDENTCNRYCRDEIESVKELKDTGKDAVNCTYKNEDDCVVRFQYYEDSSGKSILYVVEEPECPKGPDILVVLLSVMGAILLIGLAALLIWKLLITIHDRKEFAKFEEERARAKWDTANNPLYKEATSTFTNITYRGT
Integrin alpha-V/beta-3, sequence (P06756 31-889 limits assumed): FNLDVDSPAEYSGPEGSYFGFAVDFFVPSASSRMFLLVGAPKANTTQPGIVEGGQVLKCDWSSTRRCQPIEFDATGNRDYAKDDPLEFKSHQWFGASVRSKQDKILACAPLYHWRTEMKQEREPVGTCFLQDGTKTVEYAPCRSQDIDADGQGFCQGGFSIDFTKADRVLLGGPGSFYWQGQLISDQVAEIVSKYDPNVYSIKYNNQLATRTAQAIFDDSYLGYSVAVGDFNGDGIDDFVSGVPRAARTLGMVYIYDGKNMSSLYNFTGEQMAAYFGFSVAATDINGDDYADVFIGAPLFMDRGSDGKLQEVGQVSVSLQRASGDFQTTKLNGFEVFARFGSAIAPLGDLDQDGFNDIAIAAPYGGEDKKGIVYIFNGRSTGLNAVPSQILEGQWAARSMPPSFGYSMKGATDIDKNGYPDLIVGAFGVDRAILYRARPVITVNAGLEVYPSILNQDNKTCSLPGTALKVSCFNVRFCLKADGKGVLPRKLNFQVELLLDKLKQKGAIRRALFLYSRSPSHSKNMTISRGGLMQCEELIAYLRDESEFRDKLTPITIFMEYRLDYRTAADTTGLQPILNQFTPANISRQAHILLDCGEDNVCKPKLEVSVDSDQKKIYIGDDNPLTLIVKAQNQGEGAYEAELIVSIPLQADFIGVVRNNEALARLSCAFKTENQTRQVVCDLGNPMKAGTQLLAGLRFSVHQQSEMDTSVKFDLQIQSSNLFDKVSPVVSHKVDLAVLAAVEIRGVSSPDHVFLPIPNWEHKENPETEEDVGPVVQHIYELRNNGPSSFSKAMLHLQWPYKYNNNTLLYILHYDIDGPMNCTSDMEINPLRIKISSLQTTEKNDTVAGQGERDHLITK
Integrin alpha-V/beta-3, sequence (P06756 891-1048 limits assumed): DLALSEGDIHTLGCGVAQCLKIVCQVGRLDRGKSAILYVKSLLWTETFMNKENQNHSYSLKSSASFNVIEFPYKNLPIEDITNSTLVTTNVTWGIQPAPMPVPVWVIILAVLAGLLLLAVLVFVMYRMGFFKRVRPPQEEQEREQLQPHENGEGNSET
Integrin alpha-IIb/beta-3, sequence (P05106 27-788 limits assumed): as the sequence (P05106 27-788 limits assumed) above
Integrin alpha-IIb/beta-3, sequence (P08514 32-887 limits assumed): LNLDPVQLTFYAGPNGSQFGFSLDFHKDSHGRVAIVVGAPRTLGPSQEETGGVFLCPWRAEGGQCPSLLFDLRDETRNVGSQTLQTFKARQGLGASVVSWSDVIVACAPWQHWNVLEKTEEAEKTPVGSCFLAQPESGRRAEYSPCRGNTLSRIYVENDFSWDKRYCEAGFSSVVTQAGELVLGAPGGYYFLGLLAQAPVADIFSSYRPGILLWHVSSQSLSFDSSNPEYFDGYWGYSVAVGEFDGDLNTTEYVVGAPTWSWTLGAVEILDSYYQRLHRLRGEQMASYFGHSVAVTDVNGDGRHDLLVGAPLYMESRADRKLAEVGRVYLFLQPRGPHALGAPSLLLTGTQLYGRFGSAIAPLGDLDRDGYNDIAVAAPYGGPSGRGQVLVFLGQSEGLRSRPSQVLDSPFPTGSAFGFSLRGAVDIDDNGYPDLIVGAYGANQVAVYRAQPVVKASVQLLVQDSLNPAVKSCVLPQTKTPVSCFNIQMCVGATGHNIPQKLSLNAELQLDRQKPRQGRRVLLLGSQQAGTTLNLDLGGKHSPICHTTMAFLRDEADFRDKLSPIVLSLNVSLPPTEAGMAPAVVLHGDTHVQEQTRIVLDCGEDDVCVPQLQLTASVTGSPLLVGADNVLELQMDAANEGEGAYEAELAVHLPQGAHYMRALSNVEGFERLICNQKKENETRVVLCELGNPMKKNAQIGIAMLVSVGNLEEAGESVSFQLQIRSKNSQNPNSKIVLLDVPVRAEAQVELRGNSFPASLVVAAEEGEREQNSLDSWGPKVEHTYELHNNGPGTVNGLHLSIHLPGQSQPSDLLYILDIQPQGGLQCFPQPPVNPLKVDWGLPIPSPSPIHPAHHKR
Integrin alpha-IIb/beta-3, sequence (P08514 891-1039 limits assumed): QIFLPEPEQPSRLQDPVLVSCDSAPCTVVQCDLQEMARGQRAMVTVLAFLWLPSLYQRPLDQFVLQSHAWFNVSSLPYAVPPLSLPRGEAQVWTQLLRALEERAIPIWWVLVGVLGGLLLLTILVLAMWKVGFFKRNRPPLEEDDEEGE

In [1], `O=C(N[C@@H](Cc1ccc(OCCCNc2ccccn2)cc1)C(=O)O)c1c(Cl)cccc1Cl` returned a pKa of 7.1. The IC50 at Integrin alpha-V/beta-3 came to 84 nM. For the same molecule, the Ratio IC50 in the series with A375M is 4.

On to `O=C(N[C@@H](Cc1ccc(CCCc2ccc3c(n2)NCCC3)cc1)C(=O)O)c1c(Cl)cccc1Cl`, for which the IC50 on Integrin alpha-5/beta-1 [2] is less than 1 nM; on Integrin alpha-5/beta-1 [3], less than 8 nM; at Integrin alpha-5/beta-1 [5], 450 nM; in [6] it was greater than 10000 nM. In series [4], this molecule yielded a fraction unbound of 0.006.

Consider `O=C(N[C@@H](Cc1ccc(OCCNc2ccccn2)cc1)C(=O)O)c1c(Cl)cccc1Cl`, for which the pKa in series [1] is 6.7.

Regarding `Cc1cc(C)c(C(=O)N[C@@H](CNC(=O)CO[C@@H]2C[C@@H](CNc3ccccn3)N(C(=O)OCc3ccccc3)C2)C(=O)O)c(C)c1`, the IC50 worked out at 586 nM on Integrin alpha-5/beta-1 [3], 1200 nM at Integrin alpha-V/beta-3, 3200 nM in series [7] and 200 nM at Integrin alpha-5/beta-1 [8]. Besides, the Ratio IC50 with A375M was 15.

For the molecule `O=C(N[C@@H](Cc1ccc(CCCCNc2ccccn2)cc1)C(=O)O)c1c(Cl)cccc1Cl`, the concentration for half-maximal inhibition (IC50) at Integrin alpha-5/beta-1 [2] came out at 24 nM; on Integrin alpha-5/beta-1 [3] it was 1100 nM. The molecule also yielded a pKa in series [1] of 7.2.

Consider `O=C(Cc1ccc2c(n1)NCCC2)Nc1ccc(C[C@H](NC(=O)c2c(Cl)cccc2Cl)C(=O)O)cc1`, for which the IC50 turned out to be 3 nM on Integrin alpha-5/beta-1 [2]; 84 nM at Integrin alpha-5/beta-1 [3]; 49 nM on Integrin alpha-V/beta-3; 860 nM in series [7]; 210 nM at Integrin alpha-5/beta-1 [8]. Also, the Ratio IC50 with A375M is 4.

As for `NC(=O)NCCCOc1ccc(C[C@H](NC(=O)c2c(Cl)cccc2Cl)C(=O)O)cc1`, the half-maximal inhibitory concentration (IC50) stood at 150 nM at Integrin alpha-5/beta-1 [2] and 10000 nM on Integrin alpha-5/beta-1 [3].

As for `CNc1cccc(COCc2ccc(C[C@H](NC(=O)c3c(Cl)cccc3Cl)C(=O)O)cc2)n1`, the results for the IC50 on Integrin alpha-5/beta-1 [2] and at Integrin alpha-5/beta-1 [3] were 220 nM and 1400 nM, respectively. In [1], the pKa came to 6.4.

Consider `O=C(NCc1ccc2c(n1)NCCC2)c1ccc(C[C@H](NC(=O)c2c(Cl)cccc2Cl)C(=O)O)cc1`, for which the IC50 on Integrin alpha-5/beta-1 [2] was 5 nM; at Integrin alpha-5/beta-1 [3], 120 nM; at Integrin alpha-V/beta-3, 350 nM; in series [7], 8400 nM; on Integrin alpha-5/beta-1 [8] it was 1400 nM. Further, the pKa in [1] is 6.8. The Ratio IC50 in the series with A375M stood at 5.9.

In series [1], `CNc1cccc(CCCc2ccc(C[C@H](NC(=O)c3c(Cl)cccc3Cl)C(=O)O)cc2)n1` displayed a pKa of 7.6.

`O=C(N[C@@H](Cc1ccc(OCCNc2nc3ccccc3s2)cc1)C(=O)O)c1c(Cl)cccc1Cl`: the results for the IC50 at Integrin alpha-5/beta-1 [2] and on Integrin alpha-5/beta-1 [3] were 970 nM and 2400 nM, respectively. The molecule also registered a pKa in series [1] of 4.3.

In the case of `CN1CCNc2nc(CCOc3ccc(C[C@H](NC(=O)c4c(Cl)cccc4Cl)C(=O)O)cc3)ccc21`, the IC50 at Integrin alpha-5/beta-1 [2] is 1 nM; at Integrin alpha-5/beta-1 [3], less than 8 nM; on Integrin alpha-5/beta-1 [5], less than 56 nM; in [6] it was greater than 10000 nM; at Integrin alpha-V/beta-3, 23 nM; in series [7], 250 nM. For the same molecule, the IC50 on Integrin alpha-5/beta-1 [8] was 150 nM. For the same molecule, the pKa in series [1] amounted to 7.1. This molecule registered a fraction unbound in series [4] of 0.015. Also, in the series with A375M, the Ratio IC50 was determined as 1.6.

With `CN1CC(CCCOc2ccc(C[C@H](NC(=O)c3c(Cl)cccc3Cl)C(=O)O)cc2)C1`, the IC50 on Integrin alpha-5/beta-1 [2] was 360 nM; at Integrin alpha-5/beta-1 [3] it was 58000 nM.

For `CNc1cccc(CCOc2ccc(C[C@H](NC(=O)c3c(Cl)cccc3Cl)C(=O)O)cc2)n1`, the pKa in [1] is 7. Also, at Integrin alpha-V/beta-3, the IC50 amounted to 7 nM. The Ratio IC50 in the series on A375M amounted to 2.4.

On to `O=C(N[C@@H](Cc1ccc(OCCc2cccc(NC3CCCC3)n2)cc1)C(=O)O)c1c(Cl)cccc1Cl`, for which the IC50 at Integrin alpha-5/beta-1 [2] amounted to 83 nM; on Integrin alpha-5/beta-1 [3], 320 nM. Further, in series [1], the pKa came to 6.8.

As for `CN(C)c1cccc(CCOc2ccc(C[C@H](NC(=O)c3c(Cl)cccc3Cl)C(=O)O)cc2)n1`, the IC50 was determined as 140 nM at Integrin alpha-5/beta-1 [2] and 2700 nM at Integrin alpha-5/beta-1 [3].

Take `O=C(N[C@@H](Cc1ccc(OCCCCNc2ccccn2)cc1)C(=O)O)c1c(Cl)cccc1Cl`: the IC50 at Integrin alpha-5/beta-1 [2] came out at 54 nM; at Integrin alpha-5/beta-1 [3], 710 nM.

With `O=C(N[C@@H](Cc1ccc(OCCc2ccc3c(n2)NCCC3)cc1)C(=O)O)c1c(Cl)cccc1Cl`, the IC50 was less than 1 nM on Integrin alpha-5/beta-1 [2]; less than 3 nM on Integrin alpha-5/beta-1 [3]; 29 nM at Integrin alpha-5/beta-1 [5]; greater than 10000 nM in series [6]; 1 nM at Integrin alpha-V/beta-3; 9 nM in series [7]. The pKa in [1] turned out to be 7.6. The molecule further returned a free fraction (fraction unbound) in series [4] of 0.007. In the series on A375M, the Ratio IC50 came out at 4.5.

For the molecule `O=C(N[C@@H](Cc1ccc(OCCc2ccc3c(n2)NCCO3)cc1)C(=O)O)c1c(Cl)cccc1Cl`, the IC50 at Integrin alpha-5/beta-1 [2] was determined as 1 nM; on Integrin alpha-5/beta-1 [3], 10 nM; at Integrin alpha-V/beta-3, 17 nM; in series [7] it was 270 nM; on Integrin alpha-5/beta-1 [8], 130 nM. Moreover, the pKa in series [1] worked out at 6. Also, the Ratio IC50 in the series on A375M came out at 2.1.

With `Nc1cccc(CCOc2ccc(C[C@H](NC(=O)c3c(Cl)cccc3Cl)C(=O)O)cc2)n1`, the values for the half-maximal inhibitory concentration (IC50) at Integrin alpha-5/beta-1 [2] and at Integrin alpha-5/beta-1 [3] were less than 1 nM and 9 nM, respectively.

Take `O=C(N[C@@H](Cc1ccc(OCCNc2nc3ccccc3[nH]2)cc1)C(=O)O)c1c(Cl)cccc1Cl`: the figures for the IC50 on Integrin alpha-5/beta-1 [2] and at Integrin alpha-5/beta-1 [3] were 8 nM and 160 nM, respectively. The same molecule displayed a pKa in series [1] of 7.2.

Regarding `O=C(N[C@@H](Cc1ccc(C#CCCNc2ccccn2)cc1)C(=O)O)c1c(Cl)cccc1Cl`, the 50% inhibitory concentration (IC50) turned out to be 69 nM on Integrin alpha-5/beta-1 [2] and 2100 nM at Integrin alpha-5/beta-1 [3]. Further, the pKa in [1] was 6.7.

On to `O=C(N[C@@H](Cc1ccc(OCCc2cccc(NCC3CC3)n2)cc1)C(=O)O)c1c(Cl)cccc1Cl`, for which the IC50 was 3 nM on Integrin alpha-5/beta-1 [2] and less than 41 nM on Integrin alpha-5/beta-1 [3].
